Experimental findings from patent US11033547B2, “Carboxamide-pyrimidine derivatives as SHP2 antagonists” (Merck Patent GmbH, priority 2019, dated 2021) are described below.

As a reminder, the pIC50 is the IC50 on a negative log10 scale, so that one unit is a factor of ten.

Each structure is given as a SMILES string. pIC50: −log10 of the molar value. Structures can show the parent of a compound that is named as a salt.

For the test, the target named is Full length SHP2 protein (Recombinant Human SHP-2) (Homo sapiens, UniProt Q06124). As to the kind of experiment: SHP2 biochemical assay (DiFMUP substrate, activating peptide IRSI_2pY). Conditions: DiFMUP substrate, activating peptide IRSI_2pY, 60 min at RT; read-out: SHP-2 Biochemical assay IC50. The procedure:
The inhibition of SHP2 by compounds of the invention was monitored using the surrogate substrate DiFMUP after protein activation by a peptide bearing two appropriately spaced phosphotyrosine. […] The generation of the DiFMU product by activated SHP2 was monitored through Fluorescence measurement with a PerkinElmer Envision reader.
The inhibitor dose response curves were analyzed with Genedata Screener.

Full length SHP2 protein (Recombinant Human SHP-2), sequence (Q06124 2-593 limits assumed): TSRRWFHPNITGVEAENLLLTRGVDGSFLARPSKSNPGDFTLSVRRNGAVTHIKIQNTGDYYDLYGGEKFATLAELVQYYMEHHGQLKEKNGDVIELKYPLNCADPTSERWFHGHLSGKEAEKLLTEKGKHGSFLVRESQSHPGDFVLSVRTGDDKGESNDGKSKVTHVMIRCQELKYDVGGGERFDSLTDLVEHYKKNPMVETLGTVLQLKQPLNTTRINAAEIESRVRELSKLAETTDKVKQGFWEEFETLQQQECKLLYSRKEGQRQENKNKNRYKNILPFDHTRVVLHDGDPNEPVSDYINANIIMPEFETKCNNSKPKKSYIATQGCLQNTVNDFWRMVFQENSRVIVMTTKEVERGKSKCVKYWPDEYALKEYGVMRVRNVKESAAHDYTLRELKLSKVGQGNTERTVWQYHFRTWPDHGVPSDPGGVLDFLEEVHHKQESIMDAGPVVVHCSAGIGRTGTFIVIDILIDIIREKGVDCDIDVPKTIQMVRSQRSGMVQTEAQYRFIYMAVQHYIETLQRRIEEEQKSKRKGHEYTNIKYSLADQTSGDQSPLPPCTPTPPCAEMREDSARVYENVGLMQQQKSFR

With `CC1(N)CCN(c2nc(Cl)c(-c3cccc(F)c3)c(C(N)=O)n2)CC1` [Compound 19, 2-(4-Amino-4-methyl-piperidin-1-yl)-6-chloro-5-(3-fluorophenyl)-pyrimidine-4-carboxylic Acid Amide], the pIC50 is 4.06.
In the case of `CC1(N)CCN(c2nc(N)c(-c3cccc(Cl)c3Cl)c(C(=O)NN)n2)CC1` [Compound 21, 6-Amino-2-(4-amino-4-methyl-piperidin-1-yl)-5-(2,3-dichlorophenyl)-pyrimidine-4-carboxylic Acid Hydrazide], the pIC50 was 5.80.
As for `CC1(N)CCN(c2nc(F)c(-c3cccc(F)c3)c(C(N)=O)n2)CC1` [Compound 22, 2-(4-Amino-4-methyl-piperidin-1-yl)-6-fluoro-5-(3-fluorophenyl)-pyrimidine-4-carboxylic Acid Amide], the pIC50 is 4.68.
Turning to `NCC1CN(c2nc(N)c(-c3cccc(Cl)c3Cl)c(C(N)=O)n2)CC12CCOCC2` (stereo not drawn) [Compound 23, 6-amino-2-[4-(aminomethyl)-8-oxa-2-azaspiro[4.5]decan-2-yl]-5-(2,3-dichlorophenyl)pyrimidine-4-carboxamide], the pIC50 was 5.33.
In the case of `CC1(N)CCN(c2nc(O)c(-c3cccc(F)c3)c(C(N)=O)n2)CC1` [Compound 25, 2-(4-amino-4-methylpiperidin-1-yl)-5-(3-fluorophenyl)-6-hydroxypyrimidine-4-carboxamide hydrochloride], the pIC50 is below 5.00.
Turning to `Cc1nc(N2C3COCC2CC(N)C3)nc(C(N)=O)c1-c1cccc(Cl)c1Cl` (stereo not drawn) [Compound 33, 2-(7-Amino-3-oxa-9-aza-bicyclo[3.3.1]non-9-yl)-5-(2,3-dichlorophenyl)-6-methyl-pyrimidine-4-carboxylic acid amide], the pIC50 is 5.62.
On to `NCC1CN(c2nc(N)c(-c3cccc(Cl)c3Cl)c(C(N)=O)n2)CC12COC2` (stereo not drawn) [Compound 34, 6-amino-2-[8-(aminomethyl)-2-oxa-6-azaspiro[3.4]octan-6-yl]-5-(2,3-dichloro-phenyl)pyrimidine-4-carboxamide], for which the pIC50 was 5.96.
With `Cc1nc(NC2CCC(CN)C2)nc(C(N)=O)c1-c1cccc(Cl)c1Cl` (stereo not drawn) [Compound 36, 2-(3-Aminomethyl-cyclopentylamino)-5-(2,3-dichloro-phenyl)-6-methyl-pyrimidine-4-carboxylic acid amide], the pIC50 is 4.89.
The figure for `NC(=O)c1nc(N2CCC3(CC2)CC(N)CCO3)nc(N)c1-c1cccc(Cl)c1Cl` (stereo not drawn) [Compound 38, 6-amino-2-{4-amino-1-oxa-9-azaspiro[5.5]undecan-9-yl}-5-(2,3-dichlorophenyl)pyrimidine-4-carboxamide] is 5.12.
As for `NC(=O)c1nc(N2CCC(C3OCCCC3N)CC2)nc(N)c1-c1cccc(Cl)c1Cl` (stereo not drawn) [Compound 39, 6-amino-2-[4-(3-aminooxan-2-yl)piperidin-1-yl]-5-(2,3-dichlorophenyl)pyrimidine-4-carboxamide], the figure is 5.20.
Turning to `NCC1CC2(CCN(c3nc(N)c(-c4cccc(Cl)c4Cl)c(C(N)=O)n3)CC2)CO1` (stereo not drawn) [Compound 40, 6-amino-2-[3-(aminomethyl)-2-oxa-8-azaspiro[4.5]decan-8-yl]-5-(2,3-dichlorophenyl)pyrimidine-4-carboxamide], the pIC50 was 5.41.
For `Cc1nc(N2CC3CCC(N)C3C2)nc(C(N)=O)c1-c1cccc(Cl)c1Cl` (stereo not drawn) [Compound 42, 2-(4-Amino-hexahydro-cyclopenta[c]pyrrol-2-yl)-5-(2,3-dichloro-phenyl)-6-methyl-pyrimidine-4-carboxylic acid amide], the pIC50 is 5.32.
For the compound `Cc1nc(NC2CCCC2CN)nc(C(N)=O)c1-c1cccc(Cl)c1Cl` (stereo not drawn) [Compound 43, 2-(2-Aminomethyl-cyclopentylamino)-5-(2,3-dichloro-phenyl)-6-methyl-pyrimidine-4-carboxylic acid amide], the pIC50 was 5.51.
For the compound `Cc1nc(N2CC(F)(CN)C2)nc(C(N)=O)c1-c1cccc(Cl)c1Cl` [Compound 44, 2-(3-Aminomethyl-3-fluoro-azetidin-1-yl)-5-(2,3-dichloro-phenyl)-6-methyl-pyrimidine-4-carboxylic acid amide], the pIC50 is 4.96.
As to `Cc1nc(N2CCC2CN)nc(C(N)=O)c1-c1cccc(Cl)c1Cl` (stereo not drawn) [Compound 46, 2-(2-Aminomethyl-azetidin-1-yl)-5-(2,3-dichloro-phenyl)-6-methyl-pyrimidine-4-carboxylic acid amide], the pIC50 was 5.26.
The figure for `NC(=O)c1nc(N2CC3CCCC(N)C3C2)nc(N)c1-c1cccc(Cl)c1Cl` (stereo not drawn) [Compound 50, 6-amino-2-(4-amino-octahydro-1H-isoindol-2-yl)-5-(2,3-dichlorophenyl)pyrimidine-4-carboxamide] is 5.00; for `NC[C@@H]1CN(c2nc(N)c(-c3cccc(Cl)c3Cl)c(C(N)=O)n2)C[C@H]1c1ccccc1` [Compound 51, 6-amino-2-[(3R,4R)-3-(aminomethyl)-4-phenylpyrrolidin-1-yl]-5-(2,3-dichlorophenyl)pyrimidine-4-carboxamide] it is 5.82; for `NC(=O)c1nc(NC2CCOC3(C2)CN2CCC3CC2)nc(N)c1-c1cccc(Cl)c1Cl` (stereo not drawn) [Compound 52, 6-amino-2-({4-azaspiro[bicyclo[2.2.2]octane-2,2′-oxan]-4′-yl}amino)-5-(2,3-dichlorophenyl)pyrimidine-4-carboxamide] it is below 5.00.
For `NCC1(O)CN(c2nc(N)c(-c3cccc(Cl)c3Cl)c(C(N)=O)n2)C1` [Compound 54, 6-amino-2-[3-(aminomethyl)-3-hydroxyazetidin-1-yl]-5-(2,3-dichlorophenyl)-pyrimidine-4-carboxamide], the pIC50 was 5.11.
For the compound `CC1(CN)CN(c2nc(N)c(-c3cccc(Cl)c3Cl)c(C(N)=O)n2)C1` [Compound 55, 6-amino-2-[3-(aminomethyl)-3-methylazetidin-1-yl]-5-(2,3-dichlorophenyl)pyrimidine-4-carboxamide], the pIC50 is 5.77.
Regarding `Cc1nc(N2CC3CN(C)CC3C2)nc(C(N)=O)c1-c1cccc(Cl)c1Cl` (stereo not drawn) [Compound 56, 5-(2,3-Dichloro-phenyl)-6-methyl-2-(5-methyl-hexahydro-pyrrolo[3,4-c]pyrrol-2-yl)-pyrimidine-4-carboxylic acid amide], the negative logarithm of the IC50 (pIC50) was 6.02.
As to `Cc1nc(N2CC(N)(CO)C2)nc(C(N)=O)c1-c1cccc(Cl)c1Cl` [Compound 57, 2-(3-Amino-3-hydroxymethyl-azetidin-1-yl)-5-(2,3-dichloro-phenyl)-6-methyl-pyrimidine-4-carboxylic acid amide], the pIC50 is below 5.00.
`Cc1nc(N2CCC3(CC3N)C2)nc(C(N)=O)c1-c1cccc(Cl)c1Cl` (stereo not drawn) [Compound 58, 2-(1-Amino-5-aza-spiro[2.4]hept-5-yl)-5-(2,3-dichloro-phenyl)-6-methyl-pyrimidine-4-carboxylic acid amide]: the pIC50 was 5.36.
Regarding `CC1(N)CCN(c2ncc(-c3cccc4[nH]cnc34)c(C(N)=O)n2)CC1` [Compound 60, 2-(4-Amino-4-methyl-piperidin-1-yl)-5-(1H-benzoimidazol-4-yl)-pyrimidine-4-carboxylic acid amide], the pIC50 is below 5.00.
As for `CC1(N)CCN(c2ncc(-c3cccc4nonc34)c(C(N)=O)n2)CC1` [Compound 61, 2-(4-Amino-4-methyl-piperidin-1-yl)-5-benzo[1,2,5]-oxadiazol-4-yl-pyrimidine-4-carboxylic acid amide], the figure is below 5.00.
As for `CC1(N)CCN(c2nc(N)c(-c3ccc4cn[nH]c4c3Cl)c(C(N)=O)n2)CC1` [Compound 62, 6-Amino-2-(4-amino-4-methyl-piperidin-1-yl)-5-(7-chloro-1H-indazol-6-yl)-pyrimidine-4-carboxylic acid amide], the figure is below 5.00; as for `NC(=O)c1nc(N[C@@H]2CCCC[C@@H]2N)nc(N)c1-c1cccc(Cl)c1Cl` [Compound 65, 6-amino-2-{[(1R,2S)-2-aminocyclohexyl]amino}-5-(2,3-dichlorophenyl)-pyrimidine-4-carboxamide], 5.43.
On to `Cc1nc(N2CCC3CCC(C2)N3)nc(C(N)=O)c1-c1cccc(Cl)c1Cl` (stereo not drawn) [Compound 68, 2-(3,9-Diaza-bicyclo[4.2.1]-non-3-yl)-5-(2,3-dichloro-phenyl)-6-methyl-pyrimidine-4-carboxylic acid amide], for which the pIC50 is 5.21.
Take `NC(=O)c1nc(N2CC(N)C2)nc(N)c1-c1cccc(Cl)c1Cl` [Compound 69, 6-amino-2-(3-aminoazetidin-1-yl)-5-(2,3-dichlorophenyl)-pyrimidine-4-carboxamide]: the pIC50 is 5.25.
With `NC[C@@H]1[C@H]2CN(c3nc(N)c(-c4cccc(Cl)c4Cl)c(C(N)=O)n3)C[C@@H]12` [Compound 70, 6-amino-2-[(1R,5S,6R)-6-(aminomethyI)-3-azabicyclo-[3.1.0]hexan-3-yl]-5-(2,3-dichlorophenyl)pyrimidine-4-carboxamide], the pIC50 is 5.28.
Consider `NCC1CCN1c1nc(N)c(-c2cccc(Cl)c2Cl)c(C(N)=O)n1` (stereo not drawn) [Compound 71, 6-amino-2-[2-(aminomethyl)-azetidin-1-yl]-5-(2,3-dichlorophenyl)pyrimidine-4-carboxamide], for which the pIC50 is 5.89.
Consider `Cc1nc(N2C[C@H]3CC[C@@H](N)[C@H]3C2)nc(C(N)=O)c1-c1cccc(Cl)c1Cl` [Compound 72, 2-((3aR,4R,6aS)-4-Amino-hexahydro-cyclopenta-[c]pyrrol-2-yl)-5-(2,3-dichloro-phenyl)-6-methyl-pyrimidine-4-carboxylic acid amide], for which the pIC50 was 5.17.
`Cc1nc(N2C[C@H]3CCC(N)[C@@H]3C2)nc(C(N)=O)c1-c1cccc(Cl)c1Cl` (stereo partly drawn) [Compound 73, 2-((3aS,6aS)-4-Amino-hexahydro-cyclopenta-[c]pyrrol-2-yl)-5-(2,3-dichloro-phenyl)-6-methyl-pyrimidine-4-carboxylic acid amide]: the pIC50 was 5.28.
